Where two headings read alike, the source gives them in different places.
Experiments:
Format in all cases: cell-based
[1] = molecular target: T1, RON (Homo sapiens, UniProt Q04912); assay: sfRON cell mechanistic assay (HeLa), phosphorylated RON
T1 construct: expressed in transfected cells; host or cells: HeLa
T1 sequence (Q04912 913-1400 limits assumed): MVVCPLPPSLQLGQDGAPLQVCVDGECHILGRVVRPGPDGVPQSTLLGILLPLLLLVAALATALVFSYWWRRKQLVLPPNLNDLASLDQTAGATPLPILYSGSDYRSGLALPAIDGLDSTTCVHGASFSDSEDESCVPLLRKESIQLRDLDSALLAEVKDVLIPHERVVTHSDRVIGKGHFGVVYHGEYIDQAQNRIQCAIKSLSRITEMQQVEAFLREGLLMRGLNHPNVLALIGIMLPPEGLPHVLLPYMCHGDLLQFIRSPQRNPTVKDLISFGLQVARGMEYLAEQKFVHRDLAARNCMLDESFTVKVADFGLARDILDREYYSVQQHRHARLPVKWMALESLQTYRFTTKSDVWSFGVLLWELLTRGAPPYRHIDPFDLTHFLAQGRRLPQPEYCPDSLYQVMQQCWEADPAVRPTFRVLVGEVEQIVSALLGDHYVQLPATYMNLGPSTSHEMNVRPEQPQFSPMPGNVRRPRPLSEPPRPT
Experimental: The cellular activity of the compounds of the present invention against RON may be determined by the following procedure. HeLa cells were plated in Falcon 3072 96-well plates in growth media (DMEM, 10% FBS, 1% L-glutamine) at a density of 10000 cells/well and incubated at 37° C., 5% CO2 overnight. The following day, cells were transfected with 0.2 μg sfRON-pcDNA plasmid DNA with 0.5 μL Lipofectamine2000 per well in the presence of 50 μL OPTI-MEM, incubated at 37° C., 5% CO2 overnight. Costar 3915 96-well assay plates were coated with rabbit Anti-RON antibody at 2.0 μg/mL, sealed, and incubated overnight at 4° C. On the third day, coated plates were washed with PBS and blocked with 3% BSA. For the sfRON transfected cells, one-tenth volume of a 10× concentration of compounds was added to the wells in a 6-point dilution series. The dilution series was composed of an initial 1:5 dilution of a 10 mM DMSO stock solution of compound in DMSO, followed by a 1:10 dilution in growth media, for a final DMSO concentration on cells of 0.5%. Control wells were treated with 0.5% DMSO. The typical range of dilution was 10 μM to 3 nM. Once compound was added to the cells, plates were incubated for four hours at 37° C., 5% CO2. Plates were then washed in PBS, and lysed in triton-based lysis buffer. Lysates were transferred to the blocked capture plates. The phosphorylated RON levels were measured by incubating with a Goat polyclonal antibody against phosphorylated RON ([pYpY1238/1239]) followed by an anti-Goat antibody conjugated to HRP. Signal was measured on a Wallac Victor plate reader with luminance. The DMSO signal of the control wells was defined as 100% and the percent of inhibition of phosphorylated RON was expressed as percent of control. IC50 values were determined from the percent of control data using a standard four-parameter model.
(§1) The IC50 values of exemplary compounds of the present invention determined in a sfRON cell mechanistic assay using the HeLa cell line according to the procedures described herein in at least duplicate experiments are abbreviated as follows and are shown in Table 3: A, IC50≦0.03 μM; B, 0.03 μM<IC50≦0.1 μM; C, 0.1 μM<IC50≦1 μM; D, 1 μM<IC50≦3 μM; ND, not determined. The Example # of Table 3 corresponds to the compound example number as illustrated in the Examples section.

[2] = molecular target: T2, Aurora B (Homo sapiens, UniProt Q96GD4); assay: Aurora B cell mechanistic assay (HT-29), phospho-Histone H3 (Ser10) ELISA; conditions: HT-29 cell line, inhibition of phospho-Histone H3 (Ser10), at least duplicate experiments (italicized if single); read-out: Aurora B mech IC50
T2 construct: HT-29 cells grown in complete growth media; endogenous in cells; host or cells: HT-29
T2 sequence (Q96GD4 whole entry): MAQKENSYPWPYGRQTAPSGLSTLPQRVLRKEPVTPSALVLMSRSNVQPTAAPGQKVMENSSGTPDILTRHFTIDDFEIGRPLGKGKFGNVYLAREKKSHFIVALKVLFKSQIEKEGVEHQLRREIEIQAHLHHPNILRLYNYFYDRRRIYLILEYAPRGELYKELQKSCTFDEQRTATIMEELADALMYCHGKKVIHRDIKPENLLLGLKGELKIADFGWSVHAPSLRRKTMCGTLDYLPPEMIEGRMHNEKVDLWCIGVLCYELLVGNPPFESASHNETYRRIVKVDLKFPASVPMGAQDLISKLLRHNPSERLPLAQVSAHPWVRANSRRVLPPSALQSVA
Experimental: The cellular activity of the compounds of the present invention against Aurora B may be determined by the following procedure. HT-29 cells grown in complete growth media (McCoy's 5A, 10% FCS, 1% L-glutamine) were plated into wells of a 96 well tissue culture plate (Falcon 3072) at a cell density of 4×10^4 cells/0.09 ml media/well. Cells were subsequently incubated overnight in a 5% CO2 humidified 37° C. incubator. The following day 10 μl of a 10× stock of test compound serially diluted in media was added to the cells and incubated for 1 h at 37° C. at which time Calyculin A (Cell Signaling #9902) was added at a concentration of 100 nM and cells incubated for an additional 30 minutes in a 5% CO2 humidified 37° C. incubator. Media was then aspirated and cells lysed using a Triton based lysis buffer. Lysates were transferred to a pre-coated anti-Histone H3 antibody coated plate supplied by Cell Signaling in their PathScan phospho-Histone H3 (Ser10) ELISA kit (#7155). After an overnight incubation with lysate the ELISA was continued following the manufacturer's instructions. Signal was measured on a Wallac Victor plate reader at 450 nm. DMSO control treated cells served as 100% signal and an Aurora B kinase inhibitor served as 100% inhibition. The percent inhibition of phospho-Histone H3 (Ser10) was expressed as % control. IC50 values were calculated from the percent control data using a standard four-parameter model.
as §1, with “a Aurora B” for “a sfRON”, “the HT-29” for “the HeLa”, “Table 4:” for “Table 3:”, “determined. If only data from single experiments are available, the abbreviations are italicized.” for “determined.”, “Table 4” for “Table 3”

[3] = tested on: Karpas-299 cells; assay: Karpas-299 cell proliferation assay (CellTiter-Glo); conditions: Homo sapiens, 72 h; Karpas-299 cell line (NPM-ALK), 3 days incubation, at least duplicate experiments; read-out: Prolif. IC50
Experimental: The effect of inhibitors on the proliferation of Karpas-299 cells (DSMZ no. ACC 31) was determined using the following protocol. Karpas-299 cells were plated in 96-well white tissue culture treated plates (Corning 3917) in growth medium (RPMI, 10% FCS) at a density of 5000 cells/well in a total volume of 135 μL and incubated at 37° C., 5% CO2, 95% humidity overnight. The following day, one-tenth volume of a 10× concentration of compounds was added to the wells in an 8-point dilution series. Compounds were serially diluted (1:4) in DMSO from a 10 mM stock solution prior to dilution in growth media to the 10× working concentrations (5% DMSO). Final concentration of DMSO in compound-treated wells was 0.5%. Control wells containing growth media or growth media/0.5% DMSO were included in all test plates. The typical dilution range is 10 μM to 0.1 nM. Once the compounds were added to the cells, plates were incubated for 3 days at 37° C., 5% CO2 at 95% humidity. After 72 hours, all cells and reagents were equilibrated to room temperature and 15 μL of CellTiter-Glo reagent (Promega #G7573) was added to each well. Plates were shaken on a platform for 10 minutes at room temperature prior to reading luminescence. The value of the signal of the control wells was set as 100% growth and growth inhibition was expressed as percent of control. IC50 values were determined from the percent of control data using a standard four-parameter curve fit equation.
as §1, with “a” for “a sfRON”, “cell proliferation” for “cell mechanistic”, “the Karpas-299” for “the HeLa”, “Table 5:” for “Table 3:”, “Table 5” for “Table 3”
The Karpas-299 cell line has a t(2;5) chromosomal translocation and expresses the NPM-ALK fusion protein, resulting in constitutively active ALK. […] Ther. 6(12):3314-22 (2007)]. With this “ALK-driven” cell line by ALK, the cell proliferation IC50 values can thus be used as surrogate for the p-ALK cell mechanistic IC50 values.

[4] = Table 6: comparison X = C1-3haloalkyl vs. X = C1-3alkyl, read-out: sfRON cell mechanistic

IC50 [1, 4] [µM]	IC50 ([1]; sfRON transfected HeLa cells, four hours incubation, inhibition of phosphorylated RON, at least duplicate experiments, read-out: sfRON mech IC50) [µM]	IC50 [2] [µM]	IC50 [3] [µM]	SMILES
0.03 to 0.1				C[C@H](c1c(OC(F)F)ccc(F)c1Cl)c1c[nH]c2ncc(-c3cnn([C@H]4CC[C@H](O)CC4)c3)cc12 [reference compound]
1 to 3				CC(c1c(Cl)ccc(F)c1Cl)c1c[nH]c2ncc(-c3cnn(C)c3)cc12 (stereo not drawn) [reference compound]
	1 to 3	0.1 to 1	0.1 to 1	COc1ccc(F)c(Cl)c1[C@H](CF)c1c[nH]c2ncc(-c3cnn([C@H]4CC[C@H](O)CC4)c3)cc12 [Example 2, trans-4-(4-{3-[(1R)-1-(2-chloro-3-fluoro-6-methoxyphenyl)-2-fluoroethyl]-1H-pyrrolo[2,3-b]pyridin-5-yl}-1H-pyrazol-1-yl)cyclohexanol]
0.1 to 1				COc1ccc(F)c(Cl)c1[C@@H](C)c1c[nH]c2ncc(-c3cnn([C@H]4CC[C@H](O)CC4)c3)cc12 [reference compound]
